Measured values reported in the supplement of paper PMC10307832.

Key:
Test in all cases: relative viability (nuclei count vs DMSO), 5 days (fraction); higher = more cells survive
[1] = system: COR-L23
How it was run: (§1)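 Relative viability was taken as the ratio of nuclei in treated wells to nuclei in vehicle wells. Lung cancer cell lines in 1536-well plates received compounds by pin tool one day after seeding, either one drug alone or a fixed anchor-drug dose plus five library-drug doses (not always all listed) in √10 steps. Nuclei were counted on 4× images after 5 days of treatment, and values are medians of duplicate plates.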

[2] = system: NCI-H460
How it was run: as §1

[3] = system: PC-14
How it was run: as §1

[4] = system: NCI-H1563
How it was run: as §1

[5] = system: H3255
How it was run: as §1

[6] = system: LU99A
How it was run: as §1

[7] = system: SW 1573
How it was run: as §1

[8] = system: LCLC-97TM1
How it was run: as §1

[9] = system: NCI-H1650
How it was run: as §1

[10] = system: NCI-H1793
How it was run: as §1

[11] = system: 201T
How it was run: as §1

[12] = system: LC-2-ad
How it was run: as §1

[13] = system: NCI-H2228
How it was run: as §1

[14] = system: NCI-H596
How it was run: as §1

[15] = system: A-427
How it was run: as §1

[16] = system: LK-2
How it was run: as §1

[17] = system: NCI-H727
How it was run: as §1

[18] = system: SW 900
How it was run: as §1

[19] = system: NCI-H2347
How it was run: as §1

[20] = system: NCI-H23
How it was run: as §1

[21] = system: LCLC-103H
How it was run: as §1

SMILES: Nc1ccn([C@@H]2O[C@H](CO)[C@@H](O)[C@@H]2O)c(=O)n1 [Cytarabine] + COc1cc2c(Oc3ccc(NC(=O)C4(C(=O)Nc5ccc(F)cc5)CC4)cc3F)ccnc2cc1OCCCN1CCOCC1 [Foretinib] (partner 0.25 µM)
- relative viability ([1]; first compound 0.005 µM): 0.958
- relative viability ([1]; first compound 0.01581 µM): 0.966
- relative viability ([1]; first compound 0.05 µM): 0.612
- relative viability ([1]; first compound 0.1581 µM): 0.206
- relative viability ([1]; first compound 0.5 µM): 0.137
- relative viability ([2]; first compound 0.005 µM): 1.05
- relative viability ([2]; first compound 0.01581 µM): 0.837
- relative viability ([2]; first compound 0.05 µM): 0.492
- relative viability ([2]; first compound 0.1581 µM): 0.0445
- relative viability ([2]; first compound 0.5 µM): 0.0401
- relative viability ([3]; first compound 0.005 µM): 0.808
- relative viability ([3]; first compound 0.01581 µM): 0.914
- relative viability ([3]; first compound 0.05 µM): 1.02
- relative viability ([3]; first compound 0.1581 µM): 0.536
- relative viability ([3]; first compound 0.5 µM): 0.349
- relative viability ([4]; first compound 0.005 µM): 0.869
- relative viability ([4]; first compound 0.01581 µM): 0.875
- relative viability ([4]; first compound 0.05 µM): 0.869
- relative viability ([4]; first compound 0.1581 µM): 0.846
- relative viability ([4]; first compound 0.5 µM): 0.73
- relative viability ([5]; first compound 0.005 µM): 0.889
- relative viability ([5]; first compound 0.01581 µM): 0.905
- relative viability ([5]; first compound 0.05 µM): 0.628
- relative viability ([5]; first compound 0.1581 µM): 0.665
- relative viability ([5]; first compound 0.5 µM): 0.531
- relative viability ([6]; first compound 0.005 µM): 0.762
- relative viability ([6]; first compound 0.01581 µM): 0.773
- relative viability ([6]; first compound 0.05 µM): 0.809
- relative viability ([6]; first compound 0.1581 µM): 0.74
- relative viability ([6]; first compound 0.5 µM): 0.648
- relative viability ([7]; first compound 0.005 µM): 0.929
- relative viability ([7]; first compound 0.01581 µM): 0.688
- relative viability ([7]; first compound 0.05 µM): 0.881
- relative viability ([7]; first compound 0.1581 µM): 0.464
- relative viability ([7]; first compound 0.5 µM): 0.202
- relative viability ([8]; first compound 0.005 µM): 0.924
- relative viability ([8]; first compound 0.01581 µM): 0.814
- relative viability ([8]; first compound 0.05 µM): 0.749
- relative viability ([8]; first compound 0.1581 µM): 0.469
- relative viability ([8]; first compound 0.5 µM): 0.485
- relative viability ([9]; first compound 0.005 µM): 0.783
- relative viability ([9]; first compound 0.01581 µM): 0.973
- relative viability ([9]; first compound 0.05 µM): 0.73
- relative viability ([9]; first compound 0.1581 µM): 0.347
- relative viability ([9]; first compound 0.5 µM): 0.211
- relative viability ([10]; first compound 0.005 µM): 0.812
- relative viability ([10]; first compound 0.01581 µM): 0.684
- relative viability ([10]; first compound 0.05 µM): 0.683
- relative viability ([10]; first compound 0.1581 µM): 0.545
- relative viability ([10]; first compound 0.5 µM): 0.494
- relative viability ([11]; first compound 0.005 µM): 1.1
- relative viability ([11]; first compound 0.01581 µM): 1.12
- relative viability ([11]; first compound 0.05 µM): 1.02
- relative viability ([11]; first compound 0.1581 µM): 0.762
- relative viability ([11]; first compound 0.5 µM): 0.323
- relative viability ([12]; first compound 0.005 µM): 0.899
- relative viability ([12]; first compound 0.01581 µM): 0.823
- relative viability ([12]; first compound 0.05 µM): 0.839
- relative viability ([12]; first compound 0.1581 µM): 0.62
- relative viability ([12]; first compound 0.5 µM): 0.41
- relative viability ([13]; first compound 0.005 µM): 0.479
- relative viability ([13]; first compound 0.01581 µM): 0.563
- relative viability ([13]; first compound 0.05 µM): 0.285
- relative viability ([13]; first compound 0.1581 µM): 0.173
- relative viability ([13]; first compound 0.5 µM): 0.166
- relative viability ([14]; first compound 0.005 µM): 0.923
- relative viability ([14]; first compound 0.01581 µM): 0.723
- relative viability ([14]; first compound 0.05 µM): 0.542
- relative viability ([14]; first compound 0.1581 µM): 0.44
- relative viability ([14]; first compound 0.5 µM): 0.336
- relative viability ([15]; first compound 0.005 µM): 0.975
- relative viability ([15]; first compound 0.01581 µM): 0.399
- relative viability ([15]; first compound 0.05 µM): 0.296
- relative viability ([15]; first compound 0.1581 µM): 0.182
- relative viability ([15]; first compound 0.5 µM): 0.176
- relative viability ([16]; first compound 0.005 µM): 1.33
- relative viability ([16]; first compound 0.01581 µM): 0.683
- relative viability ([16]; first compound 0.05 µM): 0.741
- relative viability ([16]; first compound 0.1581 µM): 0.309
- relative viability ([16]; first compound 0.5 µM): 0.282
- relative viability ([17]; first compound 0.005 µM): 0.656
- relative viability ([17]; first compound 0.01581 µM): 0.681
- relative viability ([17]; first compound 0.05 µM): 0.597
- relative viability ([17]; first compound 0.1581 µM): 0.488
- relative viability ([17]; first compound 0.5 µM): 0.397
- relative viability ([18]; first compound 0.005 µM): 0.688
- relative viability ([18]; first compound 0.01581 µM): 0.569
- relative viability ([18]; first compound 0.05 µM): 0.329
- relative viability ([18]; first compound 0.1581 µM): 0.21
- relative viability ([18]; first compound 0.5 µM): 0.114
- relative viability ([19]; first compound 0.005 µM): 1.32
- relative viability ([19]; first compound 0.01581 µM): 1.43
- relative viability ([19]; first compound 0.05 µM): 0.806
- relative viability ([19]; first compound 0.1581 µM): 0.463
- relative viability ([19]; first compound 0.5 µM): 0.343
- relative viability ([20]; first compound 0.005 µM): 0.784
- relative viability ([20]; first compound 0.01581 µM): 0.414
- relative viability ([20]; first compound 0.05 µM): 0.43
- relative viability ([20]; first compound 0.1581 µM): 0.285
- relative viability ([20]; first compound 0.5 µM): 0.256
- relative viability ([21]; first compound 0.005 µM): 0.849
- relative viability ([21]; first compound 0.01581 µM): 0.817
- relative viability ([21]; first compound 0.05 µM): 0.96
- relative viability ([21]; first compound 0.1581 µM): 0.604
- relative viability ([21]; first compound 0.5 µM): 0.57
